This passage reports solubility results from US10079346B2, “Heteroaromatic compounds for organic electronics” (BASF SE, priority 2014, dated 2018).

Converted amounts (≈) assume the structure as drawn. Where two headings read alike, the source gives them in different places. Bounds are passed on as bounds.

A short description of the series: Solubility at 25° C. in organic solvents (Example 15). The format is physicochemical. Conditions: organic solvent or mixture.
The mark [1] stands for this setting: chlorobenzene, clorobenzene, read-out: Solubility in clorobenzene.
Setting [2] is: CHCl3, read-out: Solubility in CHCl3.
Where [3] appears, read: DMF, read-out: Solubility in DMF.
Where [4] appears, read: THF, read-out: Solubility in THF.

With `CCCCCCCc1ccc2c(c1)N=c1c(c3c(n1C(=O)OC(C)(C)C)=Nc1cc(CCCCCCC)ccc1S3)S2` [Compound 1c], the solubility (in general, the dissolved amount per volume that the medium holds) by setting is: under setting [1], above 10000 µg/mL; under setting [2], above 10000 µg/mL; under setting [3], below 1000 µg/mL; under setting [4], above 10000 µg/mL.
For `CCCCCCCCCCCCc1ccc2c(c1)N=c1c(c3c(n1C(=O)OC(C)(C)C)=Nc1cc(CCCCCCCCCCCC)ccc1S3)S2` [Compound 1d], the solubility was above 10000 µg/mL under setting [1], above 10000 µg/mL under setting [2], above 10000 µg/mL under setting [3] and above 10000 µg/mL under setting [4].
On to `c1ccc2c(c1)N=c1[nH]c3c(c1S2)Sc1ccccc1N=3` [Compound 2a, reference compound], for which the solubility was below 1000 µg/mL under setting [1], below 1000 µg/mL under setting [2], below 1000 µg/mL under setting [3] and below 1000 µg/mL under setting [4].
Consider `CC(C)(C)OC(=O)n1c2c(c3c1=Nc1ccccc1S3)Sc1ccccc1N=2` [Compound 1a], for which the solubility lay within 5000 to 10000 µg/mL (≈ 12.3 to 24.5 mM) under setting [1], 5000 to 10000 µg/mL (≈ 12.3 to 24.5 mM) under setting [2], 1000 to 5000 µg/mL (≈ 2.45 to 12.3 mM) under setting [3] and 1000 to 5000 µg/mL (≈ 2.45 to 12.3 mM) under setting [4].
